{"source": "patent US7728034B2", "about": "“Treating neurological disorders using selective antagonists of persistent sodium current” (Allergan, Inc., priority 2003, dated 2010)", "key": {"[1]": {"tested_on": "sound-induced seizures in DBA mice", "assay": "Audiogenic seizure (AGS) model in DBA/2 mice", "format": "in vivo, mouse", "excerpt": "This study examined the anti-seizure efficacy of Compound 1 against to reference compounds (Diazepam and Sipatrigine) using the audiogenic mouse model as the test platform.\nDBA mice are well established in the literature as a model for audiogenic seizures (AGS). This genetically based model is attractive for testing potential therapeutics in that no treatment protocol is required to create the condition. It is classified as inherited idiopathic epilepsy with no known associated organic disease.\nThe AGS response in these mice consists of a progressive sequence of behaviors. The latency to onset may vary from 2 to 15 seconds, and is age variant. The initial wild running phase may be divided into an early running phase that varies from 5 tp 20 seconds, followed by a wild running phase that continues for 10-20 seconds. Wild running may progress to tonic/clonic seizures, with loss of righting ability, respiratory suppression and death.\nWe a scoring system to quantify the effects of the test compounds on the induction of seizures. The behavioral sequence was assigned ascending numerical values (Table 1), and the highest numerical value reached by an animal was that animal's score.\nAnimals. Male DBA/2 mice were obtained from Jackson Laboratories at 21 day post partum. The animals were acclimated for 1 or 2 days prior to use. Individual animal weights were recorded immediately before treatment. Surviving animals were euthanized within three days of completion of testing.\nSeizure Induction. Mice were placed in a test chamber (25 cm i.d.) and exposed to pure tone sound of 11 kHz at a minimum of 116 dB for approximately 60 s until a sequential seizure response, consisting of an early wild running phase, followed by generalized myoclonus and tonic flexion and extension, was obtained. Non-responders were challenged up to five times. Ten animals were obtained by this method for each intended treatment group, with a standard deviation in their maximum score of less than 25%. The acoustic stimulus signal was produced using a signal generator and projected via four high-frequency ceramic speakers mounted on the roof of the chamber. Chamber calibration was performed daily to ensure consistent sound pressure. AGS behaviors were videotaped for later analysis.\nI.P. injections: The 10 animals in each treatment group were injected intra-peritoneally with the test drug in a volume of 10 mL/kg of body weight. Injections were 60 min prior to sound challenge.\nData analyses: Data were tested for normal distribution, and (when normal) were analyzed using ANOVA followed by Student's t test. When the data were not normally distributed, analysis was with the Mann-Whitney rank sum test. Significance was set at p<0.05."}, "[2]": {"assay": "Estimated plasma concentration after i.p. dosing in the AGS study", "format": "in vivo", "conditions": "DBA, mouse, intraperitoneal, 1 mg/kg i.p., 60 minutes after dosing"}, "[3]": {"biological_target": "T1, HEK cells expressing Nav1.3 (HEK-Nav1.3) (Homo sapiens, UniProt Q9NY46)", "T1 construct": "expressed in transfected cells", "T1 sequence (Q9NY46 whole entry)": "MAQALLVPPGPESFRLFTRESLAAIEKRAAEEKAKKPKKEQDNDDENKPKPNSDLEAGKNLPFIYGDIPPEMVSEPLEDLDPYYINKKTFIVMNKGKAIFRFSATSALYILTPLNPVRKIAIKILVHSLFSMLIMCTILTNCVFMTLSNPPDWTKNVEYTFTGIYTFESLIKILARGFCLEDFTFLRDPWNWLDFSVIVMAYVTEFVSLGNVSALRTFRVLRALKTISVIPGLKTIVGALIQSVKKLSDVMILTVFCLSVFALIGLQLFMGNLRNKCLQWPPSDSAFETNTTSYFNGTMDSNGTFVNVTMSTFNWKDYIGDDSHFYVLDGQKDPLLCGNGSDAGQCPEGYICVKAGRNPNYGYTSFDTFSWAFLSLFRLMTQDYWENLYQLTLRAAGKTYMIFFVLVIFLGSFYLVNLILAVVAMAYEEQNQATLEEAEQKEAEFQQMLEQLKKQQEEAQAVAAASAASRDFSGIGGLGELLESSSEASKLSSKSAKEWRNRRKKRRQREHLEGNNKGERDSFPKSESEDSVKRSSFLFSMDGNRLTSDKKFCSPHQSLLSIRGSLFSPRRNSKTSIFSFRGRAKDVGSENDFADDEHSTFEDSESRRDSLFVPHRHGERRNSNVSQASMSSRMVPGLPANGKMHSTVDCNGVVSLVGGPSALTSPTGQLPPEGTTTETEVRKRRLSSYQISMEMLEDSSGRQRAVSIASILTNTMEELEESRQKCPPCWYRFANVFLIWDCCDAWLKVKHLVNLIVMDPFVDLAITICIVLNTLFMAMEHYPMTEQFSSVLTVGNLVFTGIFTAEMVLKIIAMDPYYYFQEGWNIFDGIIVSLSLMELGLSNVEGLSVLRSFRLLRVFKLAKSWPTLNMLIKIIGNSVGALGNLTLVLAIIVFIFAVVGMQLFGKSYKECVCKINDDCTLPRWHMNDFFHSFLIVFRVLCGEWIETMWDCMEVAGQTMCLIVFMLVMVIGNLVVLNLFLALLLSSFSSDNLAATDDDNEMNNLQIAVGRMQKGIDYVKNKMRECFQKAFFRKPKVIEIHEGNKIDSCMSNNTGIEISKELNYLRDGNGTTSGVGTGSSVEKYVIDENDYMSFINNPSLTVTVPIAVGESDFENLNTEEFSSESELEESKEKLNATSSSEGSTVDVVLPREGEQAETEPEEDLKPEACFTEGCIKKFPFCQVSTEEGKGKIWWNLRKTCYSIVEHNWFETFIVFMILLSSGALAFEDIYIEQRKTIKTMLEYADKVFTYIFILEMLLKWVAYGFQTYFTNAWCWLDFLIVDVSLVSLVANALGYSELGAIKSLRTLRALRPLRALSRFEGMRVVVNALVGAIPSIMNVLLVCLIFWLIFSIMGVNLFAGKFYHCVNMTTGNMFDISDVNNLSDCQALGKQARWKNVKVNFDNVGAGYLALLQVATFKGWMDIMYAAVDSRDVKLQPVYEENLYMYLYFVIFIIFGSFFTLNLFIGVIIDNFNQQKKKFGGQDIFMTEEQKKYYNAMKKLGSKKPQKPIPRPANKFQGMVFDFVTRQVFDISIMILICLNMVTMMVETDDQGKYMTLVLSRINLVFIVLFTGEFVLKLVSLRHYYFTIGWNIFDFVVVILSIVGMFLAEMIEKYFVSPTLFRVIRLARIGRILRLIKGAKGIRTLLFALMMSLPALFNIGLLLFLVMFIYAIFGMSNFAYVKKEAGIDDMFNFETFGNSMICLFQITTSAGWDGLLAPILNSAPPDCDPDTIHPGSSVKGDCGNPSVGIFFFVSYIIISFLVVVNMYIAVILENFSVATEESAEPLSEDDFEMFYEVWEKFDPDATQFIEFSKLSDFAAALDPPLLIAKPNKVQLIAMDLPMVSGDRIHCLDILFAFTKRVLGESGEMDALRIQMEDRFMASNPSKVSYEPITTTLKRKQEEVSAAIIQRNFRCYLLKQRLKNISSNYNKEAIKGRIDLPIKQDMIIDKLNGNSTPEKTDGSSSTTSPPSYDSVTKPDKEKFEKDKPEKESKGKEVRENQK", "assay": "High-throughput VIPR FRET assay of persistent sodium current-dependent depolarization with K+ counter-screen", "format": "cell-based", "conditions": "tetracaine 10 μM, FIG. 2"}, "[4]": {"conditions": "DBA mice, 60 minutes after dosing, Compound 1 1 mg/kg, references at predicted doses"}, "[5]": {"conditions": "DBA/2 mice, i.p. 60 min before sound challenge, scale 1-8, Diazepam 0.15, Sipatrigine 3, Compound 1 1 mg/kg, control 4.8 ± 1.9"}}}
{"smiles": "O=C(NCCCCc1ccccc1)c1cccs1", "note": "[Compound 1, thiophene-2-carboxylic acid (4-phenyl-butyl)-amide]", "values": [{"measurement": "behavioral/seizure response to sound-induced seizures", "setting": "[1]; [4]", "value": "significantly reduced"}, {"measurement": "Seizure score (AGS), Mean ± s.d.", "setting": "[1]; [5]", "value": "3.2 ± 2.3"}, {"measurement": "concentration at 60 min", "setting": "[2]", "value": "~5", "unit": "µM"}]}
{"smiles": "CN1C(=O)CN=C(c2ccccc2)c2cc(Cl)ccc21", "note": "[Diazepam]", "values": [{"measurement": "Seizure score (AGS), Mean ± s.d.", "setting": "[1]; mouse, in vivo", "value": "3.1 ± 1.1"}, {"measurement": "behavioral/seizure response to sound-induced seizures", "setting": "[1]; mouse, in vivo, 1 mg/kg", "value": "effective"}]}
{"smiles": "CN1CCN(c2ncc(-c3cc(Cl)cc(Cl)c3Cl)c(N)n2)CC1", "note": "[Sipatrigine]", "values": [{"measurement": "behavioral/seizure response to sound-induced seizures", "setting": "[1]; [4]", "value": "effective"}, {"measurement": "Seizure score (AGS), Mean ± s.d.", "setting": "[1]; [5]", "value": "3.3 ± 1.7"}]}
{"smiles": "CCCCNc1ccc(C(=O)OCCN(C)C)cc1", "note": "[Tetracaine]", "values": [{"measurement": "K+-dependent change in Rf/Ri (depolarization, counter-screen)", "setting": "[3]", "value": "not"}, {"measurement": "Na+-dependent change in Rf/Ri (depolarization)", "setting": "[3]", "value": "inhibited"}]}
